Here are results for two compounds from PubChem BioAssay AID1919015 (Molecular Pharmacology Branch, DTP, NCI, 2023).

Several values for one entry are separate records, joined by “and”; a condition that tells them apart may be missing. Identical values can stand only once. Where only a bound is given, the exact number is not on record here.

The subject of the assay is OVCAR-5 complex spheroids with HUVEC/MSC, viability, % test/control. Briefly: Anticancer human tumor OVCAR-5 cell line growth inhibition [AhR].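 As to all read-outs here: spheroids exposed to compounds for 7 days.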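 As to viability, T/C: 100% = DMSO vehicle control wells.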 To be noted: for viability, T/C: stronger effect = lower value. In a few lines: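 Complex tumor spheroids co-cultured with HUVEC and human MSC stroma; AhR antagonists tested in combination with standard-of-care and investigational agents. Top concentration at or near clinical Cmax (else 10 microM), half-log dilutions; growth expressed as percent test/control.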

Broadly, the IC50 is the point on the concentration scale where inhibition reaches its midpoint. A word on the viability, T/C: it is the ratio of treated to control. On to `CC(C)CC(NC(=O)C(Cc1ccccc1)NC(=O)c1cnccn1)B(O)O` (configuration not stated) + Cc1cncc(-c2nc(NCCc3c[nH]c4ccccc34)c3ncn(C(C)C)c3n2)c1, for which the half-inhibitory concentration (IC50) runs as follows: (curve of first compound, second compound 0.1 µM) 0.0581 µM; (curve of first compound, second compound 0.316 µM) 0.0572 µM; (curve of first compound, second compound 1 µM) 0.0546 µM; (curve of first compound, second compound 3.16 µM) 0.0411 µM; (curve of first compound, second compound 10 µM) less than 0.000949 µM. The viability, T/C by setting is: (second compound 0.1 µM, first compound 0.000949 µM) 96.8%; (second compound 0.1 µM, first compound 0.003 µM) 102%; (second compound 0.1 µM, first compound 0.00949 µM) 102%; (second compound 0.1 µM, first compound 0.03 µM) 74.7%; (second compound 0.1 µM, first compound 0.0949 µM) 32.2%; (second compound 0.1 µM, first compound 0.3 µM) 27.2%. The viability, T/C was 96.3% (second compound 0.316 µM, first compound 0.000949 µM); 100% (second compound 0.316 µM, first compound 0.003 µM); 101% (second compound 0.316 µM, first compound 0.00949 µM); 72.1% (second compound 0.316 µM, first compound 0.03 µM); 33.2% (second compound 0.316 µM, first compound 0.0949 µM); 23.6% (second compound 0.316 µM, first compound 0.3 µM). Besides, the viability, T/C (second compound 1 µM, first compound 0.000949 µM) is 96.7%; the viability, T/C (second compound 1 µM, first compound 0.003 µM) is 95%; the viability, T/C (second compound 1 µM, first compound 0.00949 µM) was 96.6%; the viability, T/C (second compound 1 µM, first compound 0.03 µM) was 68.2%; the viability, T/C (second compound 1 µM, first compound 0.0949 µM) is 33.6%; the viability, T/C (second compound 1 µM, first compound 0.3 µM) is 25%. The viability, T/C was 82.9% (second compound 3.16 µM, first compound 0.000949 µM); 76.3% (second compound 3.16 µM, first compound 0.003 µM); 75.9% (second compound 3.16 µM, first compound 0.00949 µM); 59.5% (second compound 3.16 µM, first compound 0.03 µM); 25.6% (second compound 3.16 µM, first compound 0.0949 µM); 15.4% (second compound 3.16 µM, first compound 0.3 µM). Besides, the viability, T/C (second compound 10 µM, first compound 0.000949 µM) was 19.6%; the viability, T/C (second compound 10 µM, first compound 0.003 µM) was 24.7%; the viability, T/C (second compound 10 µM, first compound 0.00949 µM) was 15%; the viability, T/C (second compound 10 µM, first compound 0.03 µM) was 1.7%; the viability, T/C (second compound 10 µM, first compound 0.0949 µM) was 0.78%; the viability, T/C (second compound 10 µM, first compound 0.3 µM) is 0.54%.

As to `CC1COCCN1c1cc(-c2ccnn2C)c2ccnc(-c3ccn[nH]3)c2n1` (configuration not stated), the viability, T/C (compound 0.00316 µM) was 105% and 103% and 102%; the viability, T/C (compound 0.01 µM) is 103% and 101% and 105%; the viability, T/C (compound 0.0316 µM) is 102% and 95.4% and 103%; the viability, T/C (compound 0.1 µM) is 84.8% and 79.3% and 79.7%; the viability, T/C (compound 0.316 µM) was 47.3% and 38.3% and 41.1%; the viability, T/C (compound 1 µM) is 30.7% and 25.6% and 26.6%. Besides, the half-inhibitory concentration (IC50) (curve of compound) was 0.29 µM and 0.229 µM and 0.24 µM.
